Laboratory results from ChEMBL document CHEMBL1151333, “A new indole derivative from the red alga Chondria atropurpurea. Isolation, structure determination, and anthelmintic activity” (J Nat Prod, 1998).

Each molecule was assayed on Nippostrongylus brasiliensis (assay: Anthelmintic activity against Nippostrongylus brasiliensis L4 parasitant on day 5 by double serial dilution model). Conditions: 120 h.
Format: functional, organism-based

EC50 [µM] | SMILES
2370 | NC(=O)/C=C/c1c[nH]c2ccccc12
300 | COc1cccc2c(/C=C/C(=O)N/C=C/c3cn(C)c4ccccc34)cn(C)c12
260 | O=C(/C=C/c1c[nH]c2ccccc12)N/C=C/c1c[nH]c2ccccc12 [CHONDRIAMIDE A]
90 | O=C(/C=C/c1c[nH]c2ccccc12)N/C=C\c1c[nH]c2ccccc12 [CHONDRIAMIDE C]
